The source of these data is patent publication US20220041583A1, “IMMUNOMODULATORS, COMPOSITIONS AND METHODS THERE OF” (BETTA PHARMACEUTICALS CO., LTD, priority 2018, published 2022).

One data set deals with T1, PD-1/PD-L1 (Homo sapiens, UniProt Q9NZQ7).
T1 construct: Recombinant human PD-L1 protein (19-238) with a His-tag at the C-terminus; purchased AcroBiosystems PD1-H5229 (PD-L1); PD1-H5257 (PD-1)
Description: PD-1/PD-L1 homogenous time-resolved fluorescence (HTRF) binding assay. For orientation: TR-FRET usually uses a lanthanide donor and a delayed reading to cut background.

A short description of another data set: Pharmacokinetic Assay. The data set is classed as in vivo. The note with it: rat; male rats, single oral (intragastric) dose 25 mg/kg, plasma. How it is done: Healthy adult male rats were subjected to single-dose of the test compounds with 10% DMSO, 10% Kolliphor® HS 15 and 80% Saline as excipients, and the rats were giving oral administration (intragastric administration) with the compounds at a dose of 25 mg/kg, Before the experiment, the animals were fasted overnight, and the fasting time last from 12 hrs prior to the administration to 4 hrs after the administration. Time of blood collection: 15 min, 30 min, 1 h, 2 h, 4 h, 7 h, 24 h. Approximately 0.3 mL of whole blood was collected from retro-orbital venous sinus, and placed into tubes that contained EDTA as an anticoagulant. The samples were centrifuged at 4° C. and 4000 rpm for 5 min. The plasma was transferred into centrifuge tubes, and stored at −20° C. till being analyzed. Concentrations of test compounds in the plasma samples were analyzed with liquid chromatography-tandem mass spectrometry (LC-MS/MS). Plasma concentration-time data of individual animals was analyzed using WinNonlin (version 4.1; Pharsight) software. Non-compartmental model was introduced in concentration analysis. The pharmacokinetic parameters of the test compounds were calculated.

T1 sequence (Q9NZQ7 19-238): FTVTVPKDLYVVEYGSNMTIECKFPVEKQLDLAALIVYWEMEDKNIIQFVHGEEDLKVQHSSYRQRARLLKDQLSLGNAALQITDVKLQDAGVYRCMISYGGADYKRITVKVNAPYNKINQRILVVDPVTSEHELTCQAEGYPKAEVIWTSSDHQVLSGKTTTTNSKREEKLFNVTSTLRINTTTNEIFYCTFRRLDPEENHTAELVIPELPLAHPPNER

`Cc1c(-c2ccccc2)cccc1-c1nc2cc(CN3CCC[C@H]3C(=O)O)c(Cl)cc2o1` [Example 20, ((6-chloro-2-(2-methyl-[1,1′-biphenyl]-3-yl)benzo[d]oxazol-5-yl)methyl)-L-proline]: at PD-1/PD-L1 (Table 6, numeric values), the IC50 (as a rule, the concentration at which inhibition is half-maximal) came out at 1.8 nM. Moreover, in the data set “Pharmacokinetic Assay”, the AUC – broadly, concentration integrated over time – was found to be 74.5 µg·h/mL; the concentration peaked (Cmax) at 8270 ng/mL; the Tmax (in general, the time from dosing to the highest level) is 1 h; the half-life (as a rule, the time in which the quantity being followed falls by half) was 7.52 h.

For the molecule `Cc1c(-c2ccccc2)cccc1-c1nc2cc(CN3CCCC[C@H]3C(=O)O)c(OC(F)F)cc2o1` [Example 29, (S)-1-((6-(difluoromethoxy)-2-(2-methyl-[1,1′-biphenyl]-3-yl)benzo[d]oxazol-5-yl)methyl)piperidine-2-carboxylic acid], the IC50 on PD-1/PD-L1 (Table 6, class symbols) lay within 0.1 to 10 nM. Also, in “Pharmacokinetic Assay”, the AUC is 201 µg·h/mL; the Cmax (in general, the peak of the concentration-time curve) came out at 23300 ng/mL; the Tmax is 1 h; the half-life was 4.27 h.

With `Cc1cc2oc(-c3cccc(-c4ccccc4)c3C)nc2cc1CN1CCCC[C@H]1C(=O)O` [Example 22, (S)-1-((6-methyl-2-(2-methyl-[1,1′-biphenyl]-3-yl)benzo[d]oxazol-5-yl)methyl)piperidine-2-carboxylic acid], on PD-1/PD-L1 (Table 6, numeric values), the IC50 is 1.8 nM. In “Pharmacokinetic Assay”, the AUC is 151 µg·h/mL, the peak concentration (Cmax) was 10300 ng/mL, the Tmax turned out to be 1 h and the half-life is 42.3 h.
